Data taken from patent US20030087906A1, “NITROGEN SUBSTITUTED BIARYL PURINE DERIVATIVES AS POTENT ANTIPROLIFERATIVE AGENTS” (priority 2001, published 2003).
Values joined by “and” are separate entries in the source; they are usually repeats but may differ in a detail not shown here. Equal values may be shown once. “Also recorded” adds a separate entry of the source. Read-outs that look alike come from different tables or passages of the source.

Legend:
CyclinB/cdk1 = target: T1, CyclinB/cdk1 (Homo sapiens, UniProt P06493); assay: CyclinB/cdk1 protein kinase assay (histone H1 phosphorylation); type: biochemical; conditions: complex immunopurified from HeLa cells; 15 μM ATP; replicate experiments
T1 construct: Monoclonal antibody against cyclinB (GNS1) is added to the supernatant; endogenous in cells
Description: HeLa cells are blocked at the G1/S border by culturing in the presence of 2 mM thymidine for 20 h. The cells are then rinsed 3×in phosphate buffered saline and resuspended in regular medium. After 4 h of culture, the mitotic blocker, nocodazole is added to a final concentration of 75 ng/ml. […] The lysate is then clarified by centrifugation at 10,000×g for 10 min. The supernatant is collected and diluted 1:5 with Lysis Buffer. Monoclonal antibody against cyclinB (GNS1) is added to the supernatant to a final concentration of 5 μg/ml and shaken at 4° C. for 2 h. The immune complexes are then collected by the addition of 200 μl of protein agarose beads for 1 h. The beads are washed 4×in lysis buffer and 1×in kinase assay buffer.
Duplicate assays were performed at each concentration.

[1] = test system: Tumor Cells in Hollow Fibers; assay: NCI Hollow Fiber Assay (in vivo evaluation); conditions: for IP Score: IP fibers; for SC score: SC fibers
CyclinA/cdk2 = CyclinA/cdk2 (Homo sapiens, UniProt P24941); assay: CyclinA/cdk2 protein kinase assay (histone H1 phosphorylation); conditions: IC50 CyclinA/cdk2, complex immunopurified from HeLa cells; 15 μM ATP; replicate experiments
CyclinE/cdk2 = CyclinE/cdk2 (Homo sapiens, UniProt P24941); assay: CyclinE/cdk2 protein kinase assay (histone H1 phosphorylation); conditions: 15 μM ATP, replicate experiments
HeLa S-3 cells = assay: Inhibition of cell growth of HeLa cells (SRB); type: cell-based, human; conditions: 2 days of treatment, replicate experiments
Description: Growth inhibition (GI50) values were measured with HeLa S-3 cells selected for growth on plastic. […] One day later, a control plate was fixed by addition of TCA to 5%. After five rinses with tap water the plate was air dried and stored at 4° C. Test compounds were added to the remaining plates at 10-fold dilutions between 0.01 and 100 μM. Two days later all plates were fixed as described above. Cells were then stained by the addition of 100 μl per well of 0.4% sulforhodamine B (SRB) in 1% acetic acid for 30 min at 4° C. Wells were then quickly rinsed 5×with acetic acid (1%) and allowed to air dry. The SRB was then solubilized by the addition of 100 μl per well of unbuffered 10 mM Tris base. Dye was quantified by measuring absorbance at 490 nm on a Molecular Devices kinetic microplate reader. Growth at each inhibitor concentration relative to the untreated control was calculated according to the following equation: percent growth=100×(T−To)/(C−To), where T was the average optical density (OD) of the test wells after 2 days of treatment, To was the average OD of the wells in the control plate on day 0 and C was the average OD of untreated wells. Plots of percent growth versus inhibitor concentration were used to determine the GI50.

[2] = IC50 CyclinE/cdk2, complex immunopurified from HeLa cells

T1 sequence (P06493 whole entry): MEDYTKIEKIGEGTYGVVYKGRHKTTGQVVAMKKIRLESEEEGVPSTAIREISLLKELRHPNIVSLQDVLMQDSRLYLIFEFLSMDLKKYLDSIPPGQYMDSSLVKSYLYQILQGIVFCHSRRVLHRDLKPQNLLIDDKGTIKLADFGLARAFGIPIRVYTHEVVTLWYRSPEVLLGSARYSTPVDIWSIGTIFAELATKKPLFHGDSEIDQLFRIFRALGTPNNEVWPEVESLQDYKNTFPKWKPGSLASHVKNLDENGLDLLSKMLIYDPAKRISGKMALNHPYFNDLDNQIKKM
T1 sequence (P14635 whole entry partner): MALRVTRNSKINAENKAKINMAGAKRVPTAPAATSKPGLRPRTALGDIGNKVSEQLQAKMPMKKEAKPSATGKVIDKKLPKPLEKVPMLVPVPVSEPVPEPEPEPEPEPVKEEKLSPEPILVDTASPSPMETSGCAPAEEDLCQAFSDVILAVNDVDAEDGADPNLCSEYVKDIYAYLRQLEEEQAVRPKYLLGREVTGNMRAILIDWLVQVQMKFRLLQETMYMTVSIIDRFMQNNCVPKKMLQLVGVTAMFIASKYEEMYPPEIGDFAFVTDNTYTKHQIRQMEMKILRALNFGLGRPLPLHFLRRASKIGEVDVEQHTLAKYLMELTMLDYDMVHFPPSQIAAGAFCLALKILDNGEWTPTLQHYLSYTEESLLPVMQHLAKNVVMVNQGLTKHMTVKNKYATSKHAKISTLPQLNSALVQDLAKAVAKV

Row | SMILES | IC50 (CyclinB/cdk1) | IC50 (CyclinA/cdk2) | IC50 (CyclinE/cdk2; [2]) | GI50 (HeLa S-3 cells; Homo sapiens, HeLa S3, 48 h) | melting point | also measured
1 | CC(C)n1cnc2c(NCc3ccc(-c4cccnc4)cc3)nc(N[C@H]3CC[C@H](N)CC3)nc21 [Compound 103] | 1000 nM | 600 nM and 700 nM | 200 nM | – | – | Cell Types Killed [1]: OVCAR 3,; also recorded: OVCAR 5, H522,; also recorded: MDA-MB-435,; also recorded: SF295; IP Score [1]: 38; SC score [1]: 6
2 | CC(=O)N[C@H]1CC[C@H](Nc2nc(NCc3ccc(-c4cccs4)cc3)c3ncn(C(C)C)c3n2)CC1 [Compound 112] | – | 2000 nM | 2000 nM | – | – | Cell Types Killed [1]: OVCAR-3; IP Score [1]: 18; SC score [1]: 2
3 | Cc1ccc(-c2ccc(CNc3nc(N[C@H]4CC[C@H](N)CC4)nc4c3ncn4C(C)C)cc2)cc1 [Compound 13] | 4000 nM | 4000 nM and 1000 nM and 800 nM | 2000 nM and 300 nM and 900 nM | – | – | –
4 | CC(C)n1cnc2c(NCc3ccc(-c4ccccn4)nc3)nc(N[C@H]3CC[C@H](N)CC3)nc21 [Compound 93] | 900 nM | 200 nM and 300 nM | 90 nM and 100 nM | – | – | GI50 (HeLa S-3 cells): 300 nM; Cell Types Killed [1]: OVCAR-3; IP Score [1]: 22; SC score [1]: 8
5 | CC(C)n1cnc2c(NCc3ccc(-c4ccccc4)cc3)nc(N[C@H]3CCCC[C@H]3NC(=O)Nc3ccccc3)nc21 [Compound 80] | > 10000 nM | > 10000 nM | > 10000 nM and 4000 nM and 2000 nM | – | – | –
6 | CC(C)n1cnc2c(NCc3ccc(-c4ccccc4)nc3)nc(N[C@H]3CC[C@H](N)CC3)nc21 [Compound 86] | 2000 nM | 900 nM and 700 nM and 400 nM and 600 nM | – | – | – | Cell Types Killed [1]: OVCAR 3,; also recorded: OVCAR 5, H522; IP Score [1]: 38; SC score [1]: 0
7 | CC(=O)N[C@H]1CC[C@H](Nc2nc(NCc3ccc(-c4cccs4)nc3)c3ncn(C(C)C)c3n2)CC1 [Compound 200] | – | – | – | 300 nM | 206 to 208 °C | GI50 (HeLa S-3 cells): 200 nM
8 | Cc1cc(C)cc(-c2ccc(CNc3nc(N[C@H]4CC[C@H](N)CC4)nc4c3ncn4C(C)C)cc2)c1 [Compound 149] | – | – | – | – | 86 to 90 °C | –
9 | CC(=O)N[C@H]1CC[C@H](Nc2nc(NCc3cccc(-c4ccccc4)c3)c3ncn(C(C)C)c3n2)CC1 [Compound 135] | – | – | – | – | 183 to 185 °C | –
10 | CC(=O)N[C@H]1CC[C@H](Nc2nc(NCc3ccc(-c4cccc(Cl)c4)cc3)c3ncn(C(C)C)c3n2)CC1 [Compound 110] | – | 600 nM | 2000 nM | – | – | GI50 (HeLa S-3 cells): 20 nM; Cell Types Killed [1]: OVCAR-3; IP Score [1]: 14; SC score [1]: 0
11 | CCn1cnc2c(Nc3cccc(Cl)c3)nc(N[C@H]3CCCC[C@H]3N)nc21 [Compound 125, reference compound] | 600 nM | 1000 nM | 100 nM | 3000 nM | – | –
12 | CC(=O)N[C@H]1CC[C@H](Nc2nc(NCc3ccc(-c4ccccn4)nc3)c3ncn(C(C)C)c3n2)CC1 [Compound 94] | 400 nM | 600 nM and 200 nM | 300 nM | 100 nM | – | Cell Types Killed [1]: COLO205,; also recorded: OVCAR-3, H522; IP Score [1]: 22; SC score [1]: 2
13 | CC(=O)N[C@H]1CC[C@H](Nc2nc(NCc3ccc(-c4cccc(CN)c4)cc3)c3ncn(C(C)C)c3n2)CC1 [Compound 223] | – | – | – | – | 200 to 206 °C | –
14 | CCCN[C@H]1CC[C@H](Nc2nc(NCc3ccc(-c4ccc(C)s4)cc3)c3ncn(C(C)C)c3n2)CC1 [Compound 159] | – | – | – | – | 150 to 155 °C | –
15 | CC(=O)N[C@@H](C)CNc1nc(NCc2ccc(-c3ccccc3)cc2)c2ncn(C(C)C)c2n1 [Compound 108] | – | > 10000 nM | > 10000 nM | 3000 nM | – | –
16 | CC(=O)N[C@H]1CC[C@H](Nc2nc(NCc3ccc(-c4ccc(Cl)cc4)cc3)c3ncn(C(C)C)c3n2)CC1 [Compound 99] | > 10000 nM | > 10000 nM | 9000 nM | 5000 nM | – | –
17 | CC(=O)N[C@H]1CC[C@H](Nc2nc(NCc3ccc(-c4ccsc4)nc3)c3ncn(C(C)C)c3n2)CC1 [Compound 124] | – | 2000 nM | 800 nM | – | – | Cell Types Killed [1]: OVCAR-3; IP Score [1]: 28; SC score [1]: 0

More lines, main results first:

Row | IC50 (CyclinB/cdk1) | IC50 (CyclinA/cdk2) | IC50 (CyclinE/cdk2; [2]) | GI50 (HeLa S-3 cells; Homo sapiens, HeLa S3, 48 h) | melting point | SMILES | also measured
18 | 2000 nM and 200 nM | 600 nM and 800 nM | 60 nM | – | – | CC(C)n1cnc2c(NCc3cccnc3)nc(N[C@@H]3CCCC[C@@H]3N)nc21 [Compound 126, reference compound] | IC50 (CyclinE/cdk2; read-out: IC50 CyclinE/cdk2, complex immunopurified from HeLa cells): 60 nM
19 | 6000 nM | 5000 nM and 2000 nM and 1000 nM | 2000 nM and 3000 nM | – | – | CC(C)n1cnc2c(NCc3ccc(-c4ccccc4)cc3)nc(N[C@@H]3CCCC[C@@H]3N)nc21 (racemic) [Compound 74] | –
20 | – | > 10000 nM | 3000 nM | 3000 nM | – | CC(=O)N[C@H]1CC[C@H](Nc2nc(NCc3ccc(-c4ccc(C)cc4)cc3)c3ncn(C(C)C)c3n2)CC1 [Compound 97] | –
21 | 7000 nM | – | – | 5000 nM | – | CC[C@H](CO)Nc1nc(NCc2ccc(-c3cccc(NC(C)=O)c3)cc2)c2ncn(C(C)C)c2n1 [Compound 5] | –
22 | – | – | – | – | 144 to 146 °C | N[C@H]1CC[C@H](Nc2nc(NCc3ccc(-c4ccccc4)cc3)c3ncn(C4CCCC4)c3n2)CC1 [Compound 144] | –
23 | 6000 nM | 8000 nM | 4000 nM | – | – | CC(=O)N[C@H]1CC[C@H](Nc2nc(NCc3ccc(-c4cccc(F)c4)cc3)c3ncn(C(C)C)c3n2)CC1 [Compound 96] | –
24 | – | – | – | 5000 nM | 106 to 107 °C | CC(=O)NCCCNc1nc(NCc2ccc(-c3ccccc3)cc2)c2ncn(C(C)C)c2n1 [Compound 212] | –
25 | – | – | – | 60 nM | 161 to 163 °C | COc1cccc(-c2ccc(CNc3nc(N[C@H]4CC[C@H](NC(C)=O)CC4)nc4c3ncn4C(C)C)cn2)c1 [Compound 194] | GI50 (HeLa S-3 cells): 40 nM
26 | – | – | – | 600 nM | 185 to 192 °C | COc1ccc(OC)c(-c2ccc(CNc3nc(N[C@H]4CC[C@H](NC(C)=O)CC4)nc4c3ncn4C(C)C)cc2)c1 [Compound 154] | GI50 (HeLa S-3 cells): 900 nM
27 | > 10000 nM | > 10000 nM | 15000 nM and 4000 nM | – | – | CC(C)n1cnc2c(NCc3ccc(-c4ccccc4)cc3)nc(NC3(CO)CCCC3)nc21 [Compound 53] | –
28 | 6000 nM | 3000 nM | 3000 nM | – | – | CC(C)n1cnc2c(NCc3ccc(-c4ccccc4)cc3)nc(N[C@H]3CC[C@H](N)CC3)nc21 [Compound 75] | –
29 | 4000 nM | – | – | – | – | CC(C)n1cnc2c(NCc3ccc(-c4ccc(F)cc4)cc3)nc(N[C@H]3CC[C@H](N)CC3)nc21 [Compound 101] | –
30 | – | – | – | – | 175 to 182 °C | CCn1cnc2c(NCc3ccc(-c4ccccc4)cc3)nc(N[C@H]3CC[C@H](N)CC3)nc21 [Compound 137] | –
31 | 2000 nM | 7000 nM and 8000 nM | 1000 nM | 200 nM | – | CC(=O)N[C@H]1CC[C@H](Nc2nc(NCc3ccc(-c4cccnc4)cc3)c3ncn(C(C)C)c3n2)CC1 [Compound 104] | –
32 | > 10000 nM | – | 12000 nM and > 10000 nM | 7000 nM | – | CC(=O)N[C@H]1CCCC[C@@H]1Nc1nc(NCc2ccc(-c3ccccc3)cc2)c2ncn(C(C)C)c2n1 [Compound 60] | –
33 | – | – | – | – | 111 to 114 °C | C=CCn1cnc2c(NCc3ccc(-c4ccccc4)cc3)nc(N[C@H]3CC[C@H](N)CC3)nc21 [Compound 146] | –
34 | 12000 nM | 11000 nM and 4000 nM | 2000 nM and 4000 nM | – | – | CC(C)n1cnc2c(NCc3ccc(-c4ccccc4)cc3)nc(N[C@@H]3CCCC[C@H]3N)nc21 (racemic) [Compound 58] | –
35 | > 10000 nM | > 10000 nM | 4000 nM | 600 nM | – | CC(=O)N[C@H]1CC[C@H](Nc2nc(NCc3ccc(-c4ccc(F)c(Cl)c4)cc3)c3ncn(C(C)C)c3n2)CC1 [Compound 100] | –
36 | 4000 nM | – | – | – | – | CC(C)n1cnc2c(NCc3ccc(-c4cccc(F)c4)cc3)nc(N[C@H]3CC[C@H](N)CC3)nc21 [Compound 95] | –
37 | > 10000 nM | – | – | – | – | CC(C)n1cnc2c(NCc3ccc(-c4ccc(Cl)cc4)cc3)nc(N[C@H]3CC[C@H](N)CC3)nc21 [Compound 98] | –
38 | – | – | – | – | 133 to 138 °C | CCCn1cnc2c(NCc3ccc(-c4ccccc4)cc3)nc(N[C@H]3CC[C@H](N)CC3)nc21 [Compound 142] | –
39 | 7000 nM | – | – | – | – | CC(C)n1cnc2c(NCc3ccc(-c4ccc(F)c(Cl)c4)cc3)nc(N[C@H]3CC[C@H](N)CC3)nc21 [Compound 14] | GI50 (HeLa S-3 cells): 30 nM
